This passage reports IC50 results from US5814636A, “Compounds with platelet aggregation inhibitor activity” (Meiji Seika Kabushiki Kaisha, priority 1994, dated 1998).

For this assay, the system named is human PRP (platelet rich plasma). In words: Inhibition of platelet aggregation (human PRP, ADP-induced). Format: cell-based. Particulars: ADP 5 μM final as inducer, compound and PRP preincubated 2 minutes. The text has this:
The structures of compounds obtained in Examples are as follows. The numbers of the compounds correspond to those of the examples. [drawing 11] Pharmacological test: Inhibition of platelet aggregation
The effect of the compound according to the present invention on inhibiting the platelet aggregation was examined with human PRP (platelet rich plasma).
Nine volumes of a blood sample was taken out of the vein of a normal human with a syringe in which one volume of a 3.8% sodium citrate solution was charged. The blood sample was centrifuged at 170×g at room temperature for 10 minutes. The supernatant thus obtained was isolated as PRP. The residual blood sample that PRP had been taken out was centrifuged at 2,700×g for 15 minutes. The supernatant was then taken as platelet poor plasma (PPP).
Platelet aggregation test was conducted with an aggligometer (PAM-8C; manufactured by MEBANICKS Co., Ltd.). Compounds to be tested were dissolved in a 50% DMSO saline, a 50% methanol saline or physiological saline. The compound and PRP were preincubated for 2 minutes. The ADP (CHRONO-PAR REAGENTS 384 ADP, CHRONO-LOG Corp.) was used as an inducer in the form of a dilution with saline so that the final concentration is 5 μM.
Anti-platelet aggregation activity was obtained as an inhibition rate to platelet aggregation effect of ADP in the absence of a compound to be tested as follows: [formula]

Where a name gives a salt, the structure may show the parent alone.

As to `O=C(O)COc1ccc(C(=O)CN2CCN(C3CCNCC3)CC2=O)cc1` [Example 5], the IC50 came out at 0.032 µM.

The compound `O=C(O)CCc1ccc(C(=O)CN2CCN(C3CCNCC3)CC2=O)cc1` [Example 16, 3-[4-[[4-(piperidin-4-yl)-2-oxopiperazin-1-yl]acetyl]phenyl]propionic acid trifluoroacetate] displayed an IC50 of 0.42 µM. For `CCCCOC(=O)COc1ccc(C(=O)CN2C(=O)CN(C3CCNCC3)CC2=O)cc1` [Example 7, n-butyl 4-[[4-(piperidin-4-yl)-2,6-dioxopiperazin-1-yl]acetyl]phenoxyacetate hydro chloride] the value was 0.24 µM; for `CCOC(=O)COc1ccc(C(=O)CN2CCN(C3CCNCC3)CC2=O)cc1` [Example 14, ethyl 4-[[4-(piperidin-4-yl)-2-oxopiperazin-1-yl]acetyl]phenoxyacetate], 0.25 µM; for `CCOC(=O)COc1ccc(C(=O)CN2CCN(C3CCNCC3)CC2=O)cc1OCC(=O)OCC` [Example 4], 0.56 µM. For `O=C(O)COc1ccc(C(=O)CN2CCN(C3CCNCC3)CC2)cc1OCC(=O)O` [Example 3, [[4-[4-(piperidin-4-yl)piperazin-1-yl]acetyl]-o-phenylene]dioxy]diacetic acid trifluoroacetate] the value was 0.15 µM. `O=C(O)COC1CCN(C(=O)CN2CCN(C3CCNCC3)CC2=O)CC1` [Example 2, [[1-[4-(piperidin-4-yl)-2-oxopiperazin-1-yl]acetyl]piperidin-4-yl]oxyaceticacid trifluoroacetate]: half-maximal inhibition (IC50) was put at 0.08 µM. For `O=C(O)COc1ccc(C(=O)CN2CCN(C3CCNCC3)C(=O)C2=O)cc1` [Example 10, 4-[[4-(piperidin-4-yl)-2,3-dioxopiperazin-1-yl]acetyl]phenoxyacetic acid.hydrochloride] the value was 0.47 µM; for `O=C(O)COc1ccc(C(=O)CN2CC(=O)N(C3CCNCC3)CC2=O)cc1` [Example 12, 4-[[4-(piperidin-4-yl)-2,5-dioxopiperazin-1-yl]acetyl]phenoxyacetic acid hydrochloride], 1.2 µM. To `O=C(O)COc1ccc(C(=O)CN2C(=O)CN(C3CCNCC3)CC2=O)cc1` [Example 8, 4-[[4-(piperidin-4-yl)-2,6-dioxopiperazin-1-yl]acetyl]phenoxyacetic acid hydrochloride] belongs 0.019 µM; to `CCCCOC(=O)COc1ccc(C(=O)CN2CC(=O)N(C3CCNCC3)CC2=O)cc1` [Example 11], 1.1 µM; to `CCCCOC(=O)COc1ccc(C(=O)CN2CCN(C3CCNCC3)C(=O)C2=O)cc1` [Example 9, n-butyl 4-[[4-(piperidin-4-yl)-2,3-dioxopiperazin-1-yl]acetyl]phenoxyacetate hydro chloride], 1.2 µM.

With `CCCCOC(=O)COc1ccc(C(=O)CN2CCN(C3CCNCC3)CC2=O)cc1` [Example 13, n-butyl 4-[[4-(piperidin-4-yl)-2-oxopiperazin-1-yl]acetyl]phenoxyacetate dihydrochloride], inhibition was half-maximal at 0.049 µM (IC50).

In turn, `O=C(O)COC1CCN(C(=O)CN2CCC(N3CCNCC3)CC2)CC1` [Example 6, [[1-[4-(piperazin-4-yl)piperidin-1-yl]acetyl]piperidin-4-yl]oxyacetic acid trifluoroacetate] yielded an IC50 of 2.3 µM. To `CCOC(=O)COc1ccc(C(=O)CN2CCN(C3CCN(Cc4oc(=O)oc4C)CC3)CC2=O)cc1` [Example 15, ethyl 4-[[4-[1-(5-methyl-2-oxodioxol-4-yl)methylpiperidin-4-yl]-2-oxopiperazin-1-yl]acetyl]phenoxyacetate] belongs 0.3 µM; to `O=C(O)COc1ccc(C(=O)CN2CCN(C3CCNCC3)CC2=O)cc1OCC(=O)O` [Example 1, [[4-[[4-(piperidin-4-yl)-2-oxopiperazin-1-yl]acetyl]-o-phenylene]dioxy]diacetic acid trifluoroacetate], 0.055 µM.
